According to patent US20220062240A1, “METHODS OF TREATING CANCER USING A CLK INHIBITOR” (BioSplice Therapeutics, Inc., priority 2018, published 2022):
Read-outs that look alike come from different tables or passages of the source.

How the values were obtained:
[1] = test system: lung cancer (4 cell lines); assay: CellTiter-Glo Viability Assay, lung cancer; assay type: cell-based; details: Homo sapiens, inhibition of cancer cell proliferation
BT-549 = assay: CellTiter-Glo Viability Assay, breast cancer; assay type: cell-based; details: Homo sapiens, 96 h; BT-549, breast cancer, four days; read-out: EC50
DU4475 = assay: CellTiter-Glo Viability Assay, breast cancer; assay type: cell-based; details: Homo sapiens, DU-4475, 96 h; DU4475, breast cancer, four days; read-out: EC50
CAMA1 = assay: CellTiter-Glo Viability Assay, breast cancer; assay type: cell-based; details: Homo sapiens, CAMA-1, 96 h; CAMA1, breast cancer, four days; read-out: EC50
MCF7 = assay: CellTiter-Glo Viability Assay, breast cancer; assay type: cell-based; details: Homo sapiens, 96 h; MCF7, breast cancer, four days; read-out: EC50
MDA-MB-231-Luc = assay: CellTiter-Glo Viability Assay, breast cancer; assay type: cell-based; details: Homo sapiens, 96 h; MDA-MB-231-Luc, breast cancer, four days; read-out: EC50
HCC1599 = assay: CellTiter-Glo Viability Assay, breast cancer; assay type: cell-based; details: Homo sapiens, 96 h; HCC1599, breast cancer, four days; read-out: EC50
T47D = assay: CellTiter-Glo Viability Assay, breast cancer; assay type: cell-based; details: Homo sapiens, 96 h, breast cancer, four days, read-out: EC50
ZR-75-1 = assay: CellTiter-Glo Viability Assay, breast cancer; assay type: cell-based; details: Homo sapiens, 96 h; ZR-75-1, breast cancer, four days; read-out: EC50
[2] = test system: ovarian cancer (4 cell lines); assay: CellTiter-Glo Viability Assay, ovarian cancer; assay type: cell-based; details: Homo sapiens, inhibition of cancer cell proliferation
[3] = test system: colorectal cancer (6 cell lines); assay: CellTiter-Glo Viability Assay, colorectal cancer; assay type: cell-based; details: Homo sapiens; SW480 cell line; inhibition of cancer cell proliferation; read-out: Colorectal cancer, EC50 (μM) SW480
[4] = test system: prostate cancer (5 cell lines); assay: CellTiter-Glo Viability Assay, prostate cancer; assay type: cell-based; details: Homo sapiens
CLK2 = biological target: T1, CLK2 (Homo sapiens, UniProt P49760); assay: CLK2 kinase activity assay (Z-lyte, Ser/Thr 6 peptide); assay type: biochemical; details: recombinant CLK2 kinase, ATP 60 μM; read-out: EC50
T1 construct: purchased Thermo Fisher (Life Technologies), Z'-LYTE Kinase Assay Kits
Protocol: All reactions were performed in duplicate.

[5] = test system: pancreatic cancer (8 cell lines); assay: CellTiter-Glo Viability Assay, pancreatic cancer; assay type: cell-based; details: Homo sapiens, inhibition of cancer cell proliferation
CLK3 = CLK3 (Homo sapiens, UniProt P49761); assay: CLK3 kinase activity assay (Z-lyte, Ser/Thr 18 peptide)
[6] = test system: liver cancer (3 cell lines); assay: CellTiter-Glo Viability Assay, liver cancer; assay type: cell-based; details: Homo sapiens, inhibition of cancer cell proliferation
all 50 cell lines = assay: CellTiter-Glo Viability Assay, average across all cell lines; assay type: cell-based; details: Homo sapiens; across all 50 cell lines; read-out: average EC50 for inhibition of cancer cell proliferation
Method in brief: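 Cells were plated at 300-3,000 per well in their own media, then treated with compound in duplicate, with DMSO wells as controls. After four days at 37° C and 5% CO2, CellTiter-Glo was added, and luminescence was read. EC50s were fitted.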

[7] = test system: haematopoietic & lymphoid tumors (13 cell lines); assay: CellTiter-Glo Viability Assay, haematopoietic & lymphoid tumors; assay type: cell-based; details: Homo sapiens, inhibition of cancer cell proliferation

T1 sequence (P49760 whole entry): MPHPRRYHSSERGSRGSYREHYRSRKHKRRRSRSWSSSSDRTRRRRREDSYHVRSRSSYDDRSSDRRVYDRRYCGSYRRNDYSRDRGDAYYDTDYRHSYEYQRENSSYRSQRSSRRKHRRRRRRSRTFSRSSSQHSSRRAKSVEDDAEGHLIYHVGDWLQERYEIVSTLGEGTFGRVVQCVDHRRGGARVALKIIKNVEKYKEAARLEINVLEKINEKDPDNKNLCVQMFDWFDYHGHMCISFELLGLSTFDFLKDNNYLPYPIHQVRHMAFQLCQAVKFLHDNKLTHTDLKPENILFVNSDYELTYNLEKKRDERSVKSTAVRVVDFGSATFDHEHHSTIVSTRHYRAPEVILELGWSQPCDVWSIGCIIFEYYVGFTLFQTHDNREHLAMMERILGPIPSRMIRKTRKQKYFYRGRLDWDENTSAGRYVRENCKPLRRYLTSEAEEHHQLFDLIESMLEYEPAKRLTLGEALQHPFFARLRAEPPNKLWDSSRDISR
CLK3, sequence (P49761 whole entry): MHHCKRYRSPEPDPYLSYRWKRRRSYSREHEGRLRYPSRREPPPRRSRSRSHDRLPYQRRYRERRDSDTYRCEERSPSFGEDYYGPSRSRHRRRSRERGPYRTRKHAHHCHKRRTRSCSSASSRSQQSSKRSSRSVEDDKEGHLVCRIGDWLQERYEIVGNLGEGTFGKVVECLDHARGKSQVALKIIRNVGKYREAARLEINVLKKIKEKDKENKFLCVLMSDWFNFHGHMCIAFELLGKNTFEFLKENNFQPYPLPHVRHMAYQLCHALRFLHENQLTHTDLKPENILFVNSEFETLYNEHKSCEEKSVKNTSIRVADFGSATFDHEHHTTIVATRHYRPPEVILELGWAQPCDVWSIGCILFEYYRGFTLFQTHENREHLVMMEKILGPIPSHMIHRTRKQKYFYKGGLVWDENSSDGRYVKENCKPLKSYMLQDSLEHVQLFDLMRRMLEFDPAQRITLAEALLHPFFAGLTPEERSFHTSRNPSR

## Cc1n[nH]c2ccc(-c3cncc(N[C@H]4CC[C@@H](N)CC4)n3)cc12 [Compound 64]
[1]; A-427, A427 cell line, read-out: Lung cancer, EC50 (μM) A427
  EC50: 0.243 µM
[1]; HCC78, HCC-78 cell line, read-out: Lung cancer, EC50 (μM) HCC-78
  EC50: 0.725 µM
[1]; NCI-H460 cell line, read-out: Lung cancer, EC50 (μM) NCI-H460
  EC50: 0.759 µM
[1]; NCI-H522 cell line, read-out: Lung cancer, EC50 (μM) NCI-H522
  EC50: 0.396 µM
BT-549
  EC50: 228 nM
DU4475
  EC50: 121 nM
CAMA1
  EC50: 473 nM
MCF7
  EC50: 633 nM
MDA-MB-231-Luc
  EC50: 451 nM
HCC1599
  EC50: 262 nM
T47D
  EC50: 465 nM
ZR-75-1
  EC50: 211 nM
[2]; PA-1, PA1 cell line, read-out: Ovarian cancer, EC50 (μM) PA1
  EC50: 0.2 µM
[2]; TOV112D, TOV-112D cell line, read-out: Ovarian cancer, EC50 (μM) TOV-112D
  EC50: 0.155 µM
[2]; OV-90 cell line, read-out: Ovarian cancer, EC50 (μM) OV-90
  EC50: 0.179 µM
[2]; OVCAR-3 cell line, read-out: Ovarian cancer, EC50 (μM) OVCAR-3
  EC50: 0.127 µM
[3]
  EC50: 0.123 µM
[4]; DU-145, read-out: Prostate cancer EC50 Du-145
  EC50: 543 nM
[4]; PC-3, PC3 cell line, inhibition of cancer cell proliferation, read-out: Prostate cancer EC50 PC3
  EC50: 294 nM
[4]; 22Rv1 cell line, inhibition of cancer cell proliferation, read-out: Prostate cancer EC50 22Rv1
  EC50: 379 nM
[4]; LNCap clone FGC cell line, inhibition of cancer cell proliferation, read-out: Prostate cancer EC50 LNCap clone FGC
  EC50: 636 nM
[4]; VCaP (Sigma) cell line, inhibition of cancer cell proliferation, read-out: Prostate cancer EC50 VCaP (Sigma)
  EC50: 616 nM
CLK2
  EC50: 1.7 nM
[5]; BXPC-3, BxPC3 cell line, read-out: Pancreatic cancer, EC50 BxPC3
  EC50: 365 nM
[5]; CAPAN-1, Capan1 cell line, read-out: Pancreatic cancer, EC50 Capan1
  EC50: 498 nM
[5]; Capan-2, Capan2 cell line, read-out: Pancreatic cancer, EC50 Capan2
  EC50: 361 nM
[5]; MIA PaCa-2 cell line, read-out: Pancreatic cancer, EC50 MIA PaCa-2
  EC50: 157 nM
[5]; PANC 05.04 cell line, read-out: Pancreatic cancer, EC50 PANC 05.04
  EC50: 427 nM
[5]; PANC-1 cell line, read-out: Pancreatic cancer, EC50 PANC-1
  EC50: 815 nM
[5]; UPAFII cell line, read-out: Pancreatic cancer, EC50 UPAFII
  EC50: 403 nM
CLK3
  EC50: 482 nM
[6]; SNU-398, SNU398 cell line, read-out: Liver cancer, EC50 SNU398
  EC50: 59 nM
[6]; HEPG2 cell line, read-out: Liver cancer, EC50 HEPG2
  EC50: 402 nM
[6]; PLC/PRF/5 cell line, read-out: Liver cancer, EC50 PLC/PRF/5
  EC50: 1490 nM
All 50 cell lines
  EC50: 398 nM
[7]; DND41, DND-41 cell line, read-out: Haematopoietic & Lymphoid tumors, EC50 (μM) DND-41
  EC50: 0.186 µM
[7]; MV4-11, MV-4-11 cell line, read-out: Haematopoietic & Lymphoid tumors, EC50 (μM) MV-4-11
  EC50: 0.071 µM
[7]; Rec1, REC-1 cell line, read-out: Haematopoietic & Lymphoid tumors, EC50 (μM) REC-1
  EC50: 0.812 µM
[7]; SU-DHL-4, SUDHL4 cell line, read-out: Haematopoietic & Lymphoid tumors, EC50 (μM) SUDHL4
  EC50: 0.138 µM
[7]; HL-60 cell line, read-out: Haematopoietic & Lymphoid tumors, EC50 (μM) HL-60
  EC50: 0.488 µM
[7]; JM1 cell line, read-out: Haematopoietic & Lymphoid tumors, EC50 (μM) JM1
  EC50: 0.175 µM
[7]; JURKAT, Clone E6-1 cell line, read-out: Haematopoietic & Lymphoid tumors, EC50 (μM) JURKAT, Clone E6-1
  EC50: 0.624 µM
[7]; JeKo-1 cell line, read-out: Haematopoietic & Lymphoid tumors, EC50 (μM) JeKo-1
  EC50: 0.14 µM
[7]; KASUMI-1 cell line, read-out: Haematopoietic & Lymphoid tumors, EC50 (μM) KASUMI-1
  EC50: 0.275 µM
[7]; Loucy cell line, read-out: Haematopoietic & Lymphoid tumors, EC50 (μM) Loucy
  EC50: 0.217 µM
[7]; MOLT-4 cell line, read-out: Haematopoietic & Lymphoid tumors, EC50 (μM) MOLT-4
  EC50: 0.383 µM
[7]; TF-1 cell line, read-out: Haematopoietic & Lymphoid tumors, EC50 (μM) TF-1
  EC50: 0.92 µM
[7]; TOLEDO cell line, read-out: Haematopoietic & Lymphoid tumors, EC50 (μM) TOLEDO
  EC50: 0.269 µM
